Laboratory results published in paper PMC6775094, “A robust bacterial assay for high-throughput screening of human 4-hydroxyphenylpyruvate dioxygenase inhibitors” (Scientific Reports, 2019).

Biological target: T1, 4-hydroxyphenylpyruvate dioxygenase (HPD) (Homo sapiens, UniProt P32754)
T1 construct: wild type human HPD (NM_002150.2), pET42b(+), expressed in E. coli C43 (DE3)
Test: cell-based

T1 sequence (P32754 2-393): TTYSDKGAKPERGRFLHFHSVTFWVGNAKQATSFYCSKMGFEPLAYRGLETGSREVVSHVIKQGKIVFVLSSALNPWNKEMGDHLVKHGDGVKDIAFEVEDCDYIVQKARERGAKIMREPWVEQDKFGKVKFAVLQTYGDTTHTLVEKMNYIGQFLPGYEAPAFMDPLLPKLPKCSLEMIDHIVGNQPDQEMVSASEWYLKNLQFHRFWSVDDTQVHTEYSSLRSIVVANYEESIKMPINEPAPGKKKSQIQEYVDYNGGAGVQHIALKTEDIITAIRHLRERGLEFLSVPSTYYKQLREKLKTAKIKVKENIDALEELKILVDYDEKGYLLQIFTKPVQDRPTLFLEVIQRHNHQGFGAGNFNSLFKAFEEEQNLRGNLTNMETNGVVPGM

CS(=O)(=O)c1ccc(C(=O)C2C(=O)CCCC2=O)c(Cl)c1COCC(F)(F)F [tembotrione]
IC50: 0.61 ± 0.015 µM

CS(=O)(=O)c1ccc(C(=O)C2C(=O)CCCC2=O)c([N+](=O)[O-])c1 [mesotrione]
IC50: 0.396 ± 0.048 µM

CS(=O)(=O)c1ccc(C(=O)C2C(=O)CCCC2=O)c(Cl)c1 [sulcotrione]
IC50: 0.187 ± 0.037 µM
